The values below come from patent US4788188A, “Quinolylglycinamide derivatives, the process for preparation thereof and their therapeutic application as psychotropic drugs” (Sanofi (S.A.), priority 1985, dated 1988).

pIC50: −log10 of the molar value. Structures can show the parent of a compound that is named as a salt.

In one test the test system is pentetrazole seizures. The experiment in a line: Anticonvulsant activity: protection against pentetrazole seizures (EVERETT and RICHARDS). In kind it is in vivo, mice. As to conditions: pentetrazole 125 mg/kg subcutaneously, no tonic seizures during 30 minutes, 95% confidence limits (FINNEY); for ED50: Mus musculus, po, 0.5 h, read-out: ED50 (Confidence interval). The protocol:
The protective effect produced by the compound of the inventon against pentetrazole seizures was studied.
This test was carried out according to the method of EVERETT and RICHARDS (J. Pharm. Exp. Ther., 1944, 81, 402-407). The test products and reference products were administered orally (suspended in gum arabic) to batches of 10 mice, 30 minutes […] pentetrazole (125 mg/kg subcutaneously).

The next test deals with benzodiazepine receptors. The experiment in a line: Affinity for benzodiazepine receptors: inhibition of specific binding of [3H]flunitrazepam (WASTEK et al., modified). The conditions noted are these: 50% inhibition of specific binding of [3H]flunitrazepam, rat brain membranes. Further details: species or system rats. The procedure:
This study was performed according to the technique of WASTEK et al., (Europ. J. Pharmacol., 1978, 50, 445-447) slightly modified.
Rats are sacrificed by decapitation, and the brain is removed, ground, suspended, centrifuged and resuspended.
Samples of this suspension are incubated in the presence of [^3 H]flunitrazepam, alone or in the presence of increasing concentrations of the test compound.
The radioactivity bound on the membranes is then determined by liquid scintillation.
The concentration of product which 50% inhibits the specific binding of [^3 H]flunitrazepam (IC50) is thereby determined.

Take `CCOC(=O)c1cnc2ccc(Cl)cc2c1NCC(=O)N(CC)CC` [1 maleate]: in the test with pentetrazole seizures (oral, 30 min), the “ED50 (Confidence interval)” value was 27 (18-36) mg/kg.

Broadly, the pIC50 is the IC50 on a negative log10 scale, so that one unit is a factor of ten. A high value points to a low IC50. Consider `CCOC(=O)c1cnc2ccc(C)cc2c1NCC(=O)N(CC)CC` [Derivative 2, 2-[(3-Ethoxycarbonyl-6-methyl)-4-quinolyl]amino-N,N-diethylacetamide hydrochloride], for which the pIC50 at benzodiazepine receptors was 7.39.

Regarding `CCCCc1ccc2ncc(C(=O)OCC)c(NCC(=O)N(CC)CC)c2c1` [Derivative 6, 2-(3-Ethoxycarbonyl-6-butyl-4-quinolyl)amino-N,N-diethylacetamide], on benzodiazepine receptors, the pIC50 was 6.81. Compared with the last compound, the pIC50 is 0.58 log units lower.

`CCOC(=O)c1cnc2ccc(F)cc2c1NCC(=O)N(CC)CC` [Derivative 7, 2-(3-Ethoxycarbonyl-6-fluoro-4-quinolyl)amino-N,N-diethylacetamide] had a pIC50 on benzodiazepine receptors of 6.19. This pIC50 lies 0.62 log units lower than the previous one.

`CCOC(=O)c1cnc2ccc(C3CCCCC3)cc2c1NCC(=O)N(CC)CC` [Derivative 9, 2-(3-Ethoxycarbonyl-6-cyclohexyl-4-quinolyl)amino-N,N-diethylacetamide] gave a negative-log IC50 (pIC50) on benzodiazepine receptors of 6.05.

With `CCCN(CCC)C(=O)CNc1c(C(=O)OCC)cnc2ccccc12` [Derivative 15, 2-(3-Ethoxycarbonyl-4-quinolyl)amino-N,N-dipropylacetamide], the pIC50 on benzodiazepine receptors is 6.32.

On benzodiazepine receptors, `CCCN(CCC)C(=O)CNc1c(C(=O)OCC)cnc2ccc(OCC)cc12` [Derivative 16, 2-(3-Ethoxycarbonyl-6-ethoxy-4-quinolyl)amino-N,N-dipropylacetamide] showed a pIC50 of 7.42.

For the compound `CCCN(CCC)C(=O)CNc1c(C(=O)OCC)cnc2ccc([N+](=O)[O-])cc12` [Derivative 18, 2-(3-Ethoxycarbonyl-6-nitro-4-quinolyl)amino-N,N-dipropylacetamide], the pIC50 at benzodiazepine receptors is 7.59.

`CCCN(CCC)C(=O)CNc1c(C(=O)OCC)cnc2ccc(C(F)(F)F)cc12` [Derivative 19, 2-(3-Ethoxycarbonyl-6-trifluoromethyl-4-quinolyl)amino-N,N-dipropylacetamide]: at benzodiazepine receptors, the pIC50 is 7.55.

Compound `CCCN(CCC)C(=O)CNc1c(C(=O)OCC)cnc2ccc(SC)cc12` [Derivative 20, 2-(3-Ethoxycarbonyl-6-methylthio-4-quinolyl)amino-N,N-dipropylacetamide] had a pIC50 on benzodiazepine receptors of 7.40.

`CCOC(=O)c1cnc2ccc(Cl)cc2c1NCC(=O)N(CC(C)C)CC(C)C` [Derivative 21, 2-(3-Ethoxycarbonyl-6-chloro-4-quinolyl)amino-N,N-diisobutylacetamide] gave a pIC50 on benzodiazepine receptors of 7.55.

Compound `CCOC(=O)c1cnc2ccc(Cl)cc2c1NCC(=O)N(C)c1ccccc1` [Derivative 22, 2-(3-Ethoxycarbonyl-6-chloro-4-quinolyl)amino-N-methyl-N-phenylacetamide] had a pIC50 on benzodiazepine receptors of 7.85.

Regarding `CCOC(=O)c1cnc2ccc(Cl)cc2c1NCC(=O)N(C)C1CCCCC1` [Derivative 23, 2-(3-Ethoxycarbonyl-6-chloro-4-quinolyl)amino-N-methyl-N-cyclohexylacetamide], the negative logarithm of the IC50 (pIC50) on benzodiazepine receptors was 7.00.

For the compound `CCOC(=O)c1cnc2ccc(Cl)cc2c1NCC(=O)N(C)c1ccc(Cl)cc1` [Derivative 24, 2-(3-Ethoxycarbonyl-6-chloro-4-quinolyl)amino-N-methyl-N-(4-chlorophenyl)acetamide], the pIC50 on benzodiazepine receptors was 6.60. This pIC50 lies 0.40 log units lower than the previous one.

For the compound `CCOC(=O)c1cnc2ccc(Cl)cc2c1NCC(=O)N1CCCCCC1` [Derivative 27, 1-{2-[(3-Ethoxycarbonyl-6-chloro-4-quinolyl)amino]acetyl}homopiperidine], at benzodiazepine receptors, the pIC50 is 7.42.

Consider `CCOC(=O)c1cnc2ccc(Cl)cc2c1NCC(=O)N1CCOCC1` [Derivative 28, 1-{2-[(3-Ethoxycarbonyl-6-chloro-4-quinolyl)amino]acetyl}morpholine], for which the pIC50 at benzodiazepine receptors was 6.22. This pIC50 is 1.20 log units lower than that of the compound before.

On benzodiazepine receptors, `CCOC(=O)c1cnc2ccc(Cl)cc2c1NCC(N)=O` [Derivative 30, 2-[(3-Ethoxycarbonyl-6-chloro-4-quinolyl)amino]acetamide] showed a negative logarithm of the IC50 (pIC50) of 6.15.

Turning to `CCOC(=O)c1cnc2ccc(Cl)cc2c1NCC(=O)N(C(C)C)C(C)C` [Derivative 34, 2-(3-Ethoxycarbonyl-6-chloro-4-quinolyl)amino-N,N-diisopropylacetamide], the pIC50 on benzodiazepine receptors is 7.32. Compared with the last compound, the pIC50 is 1.17 log units higher.

On benzodiazepine receptors, `CCCN(C(=O)CNc1c(C(=O)OCC)cnc2ccc(Cl)cc12)c1ccccc1` [Derivative 35, 2-(3-Ethoxycarbonyl-6-chloro-4-quinolyl)amino-N-propyl-N-phenylacetamide] showed a pIC50 of 7.57.

The compound `C#CCN(C)C(=O)CNc1c(C(=O)OCC)cnc2ccc(Cl)cc12` [Derivative 36, 2-(3-Ethoxycarbonyl-6-chloro-4-quinolyl)amino-N-methyl-N-(2-propynyl)acetamide] showed a pIC50 at benzodiazepine receptors of 7.00.

As for `O=C(O)c1cnc2ccc(Cl)cc2c1NCC(=O)N1CCCCCC1` [Derivative 45, 1-{2-[(3-Carboxy-6-chloro-4-quinolyl)amino]acetyl}-homopiperidine], on benzodiazepine receptors, the pIC50 was 8.15.

The compound `CCCN(CCC)C(=O)CNc1c(C(=O)O)cnc2ccc(Br)cc12` [Derivative 47, 2-(3-Carboxy-6-bromo-4-quinolyl)amino-N,N-dipropylacetamide monohydrate] showed a pIC50 on benzodiazepine receptors of 9.00.

`CCN(CC)C(=O)CNc1c(C(=O)OC(C)C)cnc2ccc(Cl)cc12` [Derivative 48, 2-(3-Isopropyloxycarbonyl-6-chloro-4-quinolyl)amino-N,N-diethylacetamide] gave a pIC50 at benzodiazepine receptors of 7.16.

`CCN(CC)C(=O)CNc1c(C(=O)OCc2ccccc2)cnc2ccc(Cl)cc12` [Derivative 50, 2-(3-Benzyloxycarbonyl-6-chloro-4-quinolyl)amino-N,N-diethylacetamide] gave a pIC50 on benzodiazepine receptors of 7.57.

`CCCN(CCC)C(=O)CN(C)c1c(C(=O)OCc2ccccc2)cnc2ccc(C)cc12` [Derivative 53, [N'-(3-Benzyloxycarbonyl-6-methyl-4-quinolyl)-N'-methylamino]-N,N-dipropylacetamide] gave a pIC50 at benzodiazepine receptors of 6.20.

The compound `CCCNC(=O)c1cnc2ccc(Cl)cc2c1NCC(=O)N(CC)CC` [Derivative 55, 2-[3-(N-Propylcarbamoyl)-6-chloro-4-quinolyl]amino-N,N-diethylacetamide] showed a pIC50 at benzodiazepine receptors of 6.82.

Compound `CCN(CC)C(=O)CNc1c(C(=O)Nc2ccccc2)cnc2ccc(Cl)cc12` [Derivative 56, 2-[3-(N-Phenylcarbamoyl)-6-chloro-4-quinolyl]amino-N,N-diethylacetamide] gave a pIC50 on benzodiazepine receptors of 6.87.

One may read the ED50 as the dose at which the effect has come halfway, by size or by number of responders. For the compound `CCCN(CCC)C(=O)CN(C)c1c(C(=O)OCC)cnc2ccc(C)cc12.Cl` [Derivative 61, [N'-(3-Ethoxycarbonyl-6-methyl-4-quinolyl)-N'-methylamino]-N,N-dipropylacetamide hydrochloride], the ED50 with pentetrazole seizures is 24 mg/kg.

`CCCN(CCC)C(=O)CN(C)c1c(C(=O)OCC)cnc2ccc(Br)cc12` [Derivative 63, [N'-(3-Ethoxycarbonyl-6-bromo-4-quinolyl)-N'-methylamino]-N,N-dipropylacetamide]: in the test on pentetrazole seizures, the ED50 was found to be 24 mg/kg.

`CCCN(CCC)C(=O)CNc1c(C(C)=O)cnc2ccc(C)cc12` [Derivative 66, 2-(3-Acetyl-6-methyl-4-quinolyl)amino-N,N-dipropylacetamide] had a pIC50 on benzodiazepine receptors of 7.04.

For the compound `CCC1(c2ccccc2)C(=O)NC(=O)NC1=O` [Phenobarbital, reference compound], the 50% effective dose (ED50) with pentetrazole seizures is 10 mg/kg.
